According to patent US11857533B2, “Composition for preventing or treating obesity or lipid-related metabolic disorders” (Nexyon Biotech Co., Ltd., priority 2019, dated 2024):

Experiments:
Format in all cases: in vivo, C57BL/6 mice
[1] = test system: high-fat-diet-induced obesity mouse model; experiment: Weight loss effect in high-fat-diet-induced obesity mouse model; conditions: irosustat 10 mg/kg orally once a day, 60% high-fat diet
Method: (§1) 8-week-old C57BL/6 mice were fed with a 60% high-fat diet, and a vehicle or irosustat (10 mg/kg) prepared in Preparation Example 1 was administered orally to the mice once a day for a total of 10 days.

[2] = test system: high-fat-diet-induced obesity mouse model; experiment: Fat mass and lean mass by DEXA in high-fat-diet-induced obesity mouse model; conditions: 10 mg/kg orally once a day for 13 weeks, vs vehicle
Method: as §1
An experiment was performed under the same conditions as in Experimental Example 1 above, except that the mice were imaged using DEXA (Dual-energy X-ray absorptiometry) after the vehicle or irosustat was administered orally to the mice for 13 weeks.

[3] = test system: high-fat-diet-induced obesity mouse model; experiment: Adipocyte size in abdominal fat tissue, high-fat-diet-induced obesity mouse model; conditions: 10 mg/kg orally once a day for 13 weeks, vs vehicle
Method: as §1
An experiment was performed under the same conditions as in Experimental Example 1 above, except that the mice were euthanized after oral administration of irosustat for 13 weeks and abdominal fat tissue was taken and then imaged with a microscope. In addition, the areas of adipocytes in the abdominal fat tissue in the control group and the drug-administered group were measured, and the results are shown in FIG. 5.

[4] = test system: high-fat-diet-induced obesity mouse model; experiment: Hepatic steatosis amelioration, liver tissue microscopy, high-fat-diet-induced obesity mouse model; conditions: 10 mg/kg orally once a day for 13 weeks, vs vehicle
Method: as §1
An experiment was performed under the same conditions as in Experimental Example 1 above, except that the mice were euthanized after oral administration of irosustat for 13 weeks and hepatic tissue was taken and then imaged with a microscope.

[5] = test system: high-fat-diet-induced obesity mouse model; experiment: Glucose tolerance test (GTT) in high-fat-diet-induced obesity mouse model; conditions: 10 mg/kg orally for 11 weeks, 16 h fast, glucose 1 g/kg i.p., 0-120 min, vs vehicle
Method: as §1
An experiment was performed under the same conditions as in Experimental Example 1 above, except that the mice were fasted for 16 hours after oral administration of irosustat for 11 weeks, and glucose was injected intraperitoneally into the mice at a dose of 1 g/kg body weight. 0 min, 15 min, 30 min, 60 min, 90 min and 120 min after intraperitoneal injection, blood was collected from the tail of each mice and the glucose level in the blood was measured. However, during the glucose tolerance test, a stable environment was provided to the experimental animals. In addition, AUC (area under the glucose-time curve) was measured using the following Equation 1 and the results are shown in FIG. 8. In Equation 1, C0, C15, C30, C60, C90 and C120 are glucose levels measured at 0 min, 15 min, 30 min, 60 min, 90 min and 120 min, respectively. AUC=0.5×(0.5×C0+C15+C30+C60+C90+0.5×C120) [Equation 1]

[6] = test system: high-fat-diet-induced obesity mouse model; experiment: Insulin tolerance test (ITT) in high-fat-diet-induced obesity mouse model; conditions: 10 mg/kg orally for 12 weeks, 2 h fast, insulin 0.8 units/kg i.p., 0-120 min, vs vehicle
Method: as §1
An experiment was performed under the same conditions as in Experimental Example 1 above, except that the mice were fasted for 2 hours after oral administration of irosustat for 12 weeks, and then the blood glucose levels of the mice were measured and insulin was injected intraperitoneally into the mice at a dose of 0.8 units/kg body weight. 0 min, 15 min, 30 min, 60 min, 90 min and 120 min after intraperitoneal injection, blood was collected from the tail of each mice and the glucose level in the blood was measured.

[7] = test system: high-fat-diet-induced obesity mouse model; experiment: Blood cholesterol and triglyceride levels in high-fat-diet-induced obesity mouse model; conditions: 10 mg/kg orally once a day for 13 weeks, vs vehicle
Method: as §1
An experiment was performed under the same conditions as in Experimental Example 1 above, except that the blood cholesterol and triglyceride levels in the control group and the drug-administered group were measured after oral administration of irosustat for 13 weeks. The results of measurement of the cholesterol and triglyceride levels are shown in FIGS. 11 and 12, respectively.

NS(=O)(=O)Oc1ccc2c3c(c(=O)oc2c1)CCCCC3 [irosustat, (6-oxo-8,9,10,11-tetrahydro-7H-cyclohepta[c]chromen-3-yl) sulfamate]
body weight ([1]; C57BL/6 mice, vehicle control 36.4+/−3.4 g): 31.4 ± 5.0 g | decrease of body weight compared to control group ([1]; vs vehicle): about 14% | fat mass [2]: significantly decreased | size of adipocytes in abdominal fat tissue [3]: significantly decreased | findings of hepatic steatosis caused by the high-fat diet [4]: significantly improved | blood glucose level in glucose tolerance test (time course and AUC) [5]: significantly decreased | blood glucose level in insulin tolerance test (time course and AUC) [6]: significantly decreased | blood cholesterol level [7]: significantly decreased | blood triglyceride level [7]: significantly decreased
